Patent US20250082674A1, “METHODS OF TREATING COPPER METABOLISM-ASSOCIATED DISEASES OR DISORDERS” (priority 2021, published 2025)
Read-outs that look alike come from different tables or passages of the source.

What was measured:
[1] = tested on: patients with Wilson disease (WD)
Text: The UWDRS Part II total score results for this pooled population are presented in Table 16 and FIG. 13 and the UWDRS Part III total score results are in Table 17 and FIG. 14. The UWDRS Part III Functional Subscale (comprised of the items arising from a chair, gait, handwriting and speech) results for this pooled population are presented in Table 18 and FIG. 15.

copper [2] = conditions: Study 301, FIG. 23, versus SoC chelator therapy
Text: Biomarkers and Biobank Samples: Blood samples were collected to measure plasma Cp and CpC. Urine samples were collected for analysis of urine copper and molybdenum. Additional biomarker or biobank samples were collected for the analysis of molybdenum and/or copper species associated with treatment.

copper [3] = tested on: copper
Description: Study 204 is registered with ClinicalTrials.gov, number NCT04573309, and is described in Example 1 of U.S. Provisional Patent Application No. 63/237,120, filed Aug. 25, 2021, and incorporated by reference herein. […] The participants remained on a Cu-controlled diet, and Cu and Mo balance were measured on all intake (i.e., investigational agent, food and fluids) and all output (urine and feces). The Cu and Mo concentration of each sample was determined by inductively coupled plasma mass spectrometry (ICP-MS). Copper and Mo content of all intake and output was calculated based on the volume or weight of intake and output and the concentration of representative samples.
Collection periods for feces and urine varied in duration from 3 to 15 days to support assessment of both Cu and Mo balance before and at steady state for both 15 mg and 30 mg. Equilibration periods on Cu/Mo-controlled diets were a minimum of 48 hours. Copper balance was calculated as the mean daily Cu balance over each of the 4 collection periods. The interpretation of Cu balance was based on the criteria previously established when undertaking Cu balance studies with zinc treatment.
These participants had all intake (food and drink) and output (urine and feces) collected from Day-4 through Day-1 (baseline), from Day 1 through Day 8, and Day 25 through Day 39.

copper [4] = conditions: Study 201, BC-TTM monotherapy, Week 24
[5] = Study 204, Days 1-8 (Accumulation 15 mg/day)
[6] = Study 204, Days 25-28 (Steady State 15 mg/day)
[7] = Study 204, Days 31-35 (Accumulation 30 mg/day)
[8] = Study 204, Days 36-39 (Steady State 30 mg/day)

Bis-choline tetrathiomolybdate [BC-TTM]
UWDRS Part III (Range 0-175) Mean change from baseline ([1]; BC-TTM exposure 240 wks): 11.48 | UWDRS Part III Functional Subscale (Range 0-10) LSM change from baseline ([1]; BC-TTM exposure 240 wks): −0.607 | UWDRS Part III Functional Subscale (Range 0-10) Mean change from baseline ([1]; BC-TTM exposure 240 wks): −0.898 | UWDRS Part III (Range 0-175) LSM change from baseline ([1]; BC-TTM exposure 264 wks): −9.57 | UWDRS Part III (Range 0-175) Mean change from baseline ([1]; BC-TTM exposure 264 wks): −14.00 | UWDRS Part III Functional Subscale (Range 0-10) LSM change from baseline ([1]; BC-TTM exposure 264 wks): −0.818 | UWDRS Part III Functional Subscale (Range 0-10) Mean change from baseline ([1]; BC-TTM exposure 264 wks): −0.995 | UWDRS Part III (Range 0-175) Mean ([1]; Baseline, observed value): 15.43 | UWDRS Part III Functional Subscale (Range 0-10) Mean ([1]; Baseline, observed value): 1.590 | UWDRS Part II, Part III and Part III Functional Subscale scores over up to 5 years ([1]; Pooled Studies 301 and 201): continuing improvement | UWDRS Part II Score (Range 0-40), change from baseline, Mean (SD) ([1]; Pooled Studies 301 and 201, BC-TTM exposure 4 weeks): −0.3 (2.28) | UWDRS Part II Score (Range 0-40), change from baseline, Mean (SD) ([1]; Pooled Studies 301 and 201, BC-TTM exposure 12 weeks): −0.4 (2.76) | UWDRS Part II Score (Range 0-40), change from baseline, Mean (SD) ([1]; Pooled Studies 301 and 201, BC-TTM exposure 24 weeks): −0.4 (3.42) | UWDRS Part II Score (Range 0-40), change from baseline, Mean (SD) ([1]; Pooled Studies 301 and 201, BC-TTM exposure 36 weeks): −0.9 (4.11) | UWDRS Part II Score (Range 0-40), change from baseline, Mean (SD) ([1]; Pooled Studies 301 and 201, BC-TTM exposure 48 weeks): −1.2 (4.24) | UWDRS Part II Score (Range 0-40), change from baseline, Mean (SD) ([1]; Pooled Studies 301 and 201, BC-TTM exposure 60 weeks): −1.4 (4.35) | UWDRS Part II Score (Range 0-40), change from baseline, Mean (SD) ([1]; Pooled Studies 301 and 201, BC-TTM exposure 72 weeks): −1.9 (4.74) | UWDRS Part II Score (Range 0-40), change from baseline, Mean (SD) ([1]; Pooled Studies 301 and 201, BC-TTM exposure 96 weeks): −2.5 (6.11) | UWDRS Part II Score (Range 0-40), change from baseline, Mean (SD) ([1]; Pooled Studies 301 and 201, BC-TTM exposure 120 weeks): −3.1 (6.82) | UWDRS Part II Score (Range 0-40), change from baseline, Mean (SD) ([1]; Pooled Studies 301 and 201, BC-TTM exposure 144 weeks): −3.3 (6.61) | UWDRS Part II Score (Range 0-40), change from baseline, Mean (SD) ([1]; Pooled Studies 301 and 201, BC-TTM exposure 168 weeks): −6.2 (10.17) | UWDRS Part II Score (Range 0-40), change from baseline, Mean (SD) ([1]; Pooled Studies 301 and 201, BC-TTM exposure 192 weeks): −5.9 (9.88) | UWDRS Part II Score (Range 0-40), change from baseline, Mean (SD) ([1]; Pooled Studies 301 and 201, BC-TTM exposure 216 weeks): −7.1 (10.90) | UWDRS Part II Score (Range 0-40), change from baseline, Mean (SD) ([1]; Pooled Studies 301 and 201, BC-TTM exposure 240 weeks): −6.6 (10.09) | UWDRS Part II Score (Range 0-40), change from baseline, Mean (SD) ([1]; Pooled Studies 301 and 201, BC-TTM exposure 264 weeks): −6.2 (9.02) | 24-hour urinary copper (copper [2]): lower | Daily Net Copper Balance, Change from Baseline, Median (IQR) (copper [3]; [5]): −0.4291 (0.2176) mg | Daily Net Copper Balance, Value, Mean (SD) (copper [3]; [5]): 0.7654 (0.3538) mg | Daily Net Copper Balance, Value, Median (IQR) (copper [3]; [5]): 0.6678 (0.6871) mg | Increase from Baseline in Average Daily Fecal Copper Excretion, Mean (SD) (copper [3]; [5]): 0.3278 (0.319) mg | Increase from Baseline in Average Daily Urine Copper Excretion, Mean (SD) (copper [3]; [5]): −0.0108 (0.01119) mg | Daily Net Copper Balance, Change from Baseline, Median (IQR) (copper [3]; [6]): −0.1459 (1.0434) mg | Daily Net Copper Balance, Value, Mean (SD) (copper [3]; [6]): 0.7638 (0.9138) mg | Daily Net Copper Balance, Value, Median (IQR) (copper [3]; [6]): 1.1434 (1.7052) mg | Increase from Baseline in Average Daily Fecal Copper Excretion, Mean (SD) (copper [3]; [6]): 0.4931 (0.4955) mg | Increase from Baseline in Average Daily Urine Copper Excretion, Mean (SD) (copper [3]; [6]): 0.1042 (0.08556) mg | Daily Net Copper Balance, Change from Baseline, Median (IQR) (copper [3]; [7]): −0.3707 (0.1093) mg | Daily Net Copper Balance, Value, Mean (SD) (copper [3]; [7]): 0.8577 (0.3427) mg | Daily Net Copper Balance, Value, Median (IQR) (copper [3]; [7]): 0.8312 (0.6838) mg | Increase from Baseline in Average Daily Fecal Copper Excretion, Mean (SD) (copper [3]; [7]): 0.3879 (0.4193) mg | Increase from Baseline in Average Daily Urine Copper Excretion, Mean (SD) (copper [3]; [7]): 0.0744 (0.05427) mg | Daily Net Copper Balance, Change from Baseline, Median (IQR) (copper [3]; [8]): −0.4225 (0.2275) mg | Daily Net Copper Balance, Value, Mean (SD) (copper [3]; [8]): 0.8582 (0.2565) mg | Daily Net Copper Balance, Value, Median (IQR) (copper [3]; [8]): 0.7986 (0.5024) mg | Increase from Baseline in Average Daily Fecal Copper Excretion, Mean (SD) (copper [3]; [8]): 0.0899 (0.2021) mg | Increase from Baseline in Average Daily Urine Copper Excretion, Mean (SD) (copper [3]; [8]): 0.1042 (0.04328) mg | Daily Net Copper Balance, Change from Baseline, Mean (SD) (copper [3]; Study 204, Table 10, Days 1-8 (Accumulation 15 mg/day)): −0.4848 (0.119) mg | Daily Net Copper Balance, Change from Baseline, Mean (SD) (copper [3]; Study 204, Table 10, Days 25-28 (Steady State 15 mg/day)): −0.4865 (0.5993) mg | Daily Net Copper Balance, Change from Baseline, Mean (SD) (copper [3]; Study 204, Table 10, Days 31-35 (Accumulation 30 mg/day)): −0.3925 (0.05781) mg | Daily Net Copper Balance, Change from Baseline, Mean (SD) (copper [3]; Study 204, Table 10, Days 36-39 (Steady State 30 mg/day)): −0.3921 (0.1168) mg | Decrease from Baseline in Average Daily Net Copper Balance, Change from Baseline Mean (SD) (copper [3]; Study 204, Table 13, Days 1-8 (Accumulation 15 mg/day)): −0.4848 (0.119) mg | Decrease from Baseline in Average Daily Net Copper Balance, Change from Baseline Mean (SD) (copper [3]; Study 204, Table 13, Days 1-39): −0.448 (0.1469) mg | Decrease from Baseline in Average Daily Net Copper Balance, Change from Baseline Mean (SD) (copper [3]; Study 204, Table 13, Days 25-28 (Steady State 15 mg/day)): −0.6381 (0.7673) mg | Decrease from Baseline in Average Daily Net Copper Balance, Change from Baseline Mean (SD) (copper [3]; Study 204, Table 13, Days 31-35 (Accumulation 30 mg/day)): −0.3925 (0.05781) mg | Decrease from Baseline in Average Daily Net Copper Balance, Change from Baseline Mean (SD) (copper [3]; Study 204, Table 13, Days 36-39 (Steady State 30 mg/day)): −0.2765 (0.3138) mg | reduction of mean serum cNCCcorrected compared with baseline (copper [4]): 72%
